Tests used:
[1] = test system: male Swiss albino mice (CD-1); test: Maximal electroshock seizure test (MES); format: in vivo; settings: 0.5 h, mice; for ED50 / responders at 100 mg/kg: Mus musculus, ip; for responders at 100 mg/kg / MES: number of mice protected/number of mice tested: screening, 100 mg/kg i.p.; for responders at 100 mg/kg: read-out: MES: number of mice protected/number of mice tested (converted)
Protocol: (§1) The male Swiss albino mice (CD-1) weighing 18-26 g were used. All procedures were carried out in accordance with applicable Polish and international guidelines on the ethics of animal testing, after obtaining appropriate institutional approval. The substances were administered intraperitoneally (i.p.), in 1% aqueous solution of Tween, as single injections with a volume of 10 ml/kg, 30 minutes before the given test. Screening was performed on groups consisted of 4 mice. The average effective dose (ED50) in given test and toxic dose in the rotarod test (TD50) was estimated based on the results obtained in 3-4 groups of animals consisting of 6 mice. All tests were carried out based on the procedures described in the specialist literature.
In the MES test, the seizures were induced by an electrical stimulus lasting of 0.2 s duration, 500 V voltage and 25 mA intensity. The electrical stimuli was generated using an electric shock generator (Rodent shocker, Type 221, Hugo Sachs Elektronik, Germany) and delivered to the animal using electrodes placed on the auricles. The study was conducted 30 minutes after intraperitoneal administration of the compounds at various doses. During the experiment, the number of animals that experienced a seizure episode in the form of tonic extension of the hind limbs was counted (Kamiński, K.; Rapacz, A.; Łuszczki, J. J.; Latacz, G.; Obniska, J.; Kieć-Kononowicz, K.; Filipek, B. Bioorg. Med. Chem. 2015, 23, 2548-2561; Castel-Branco, M. M.; Alves, G. L.; Figueiredo, I. V.; Falcão, A. C.; Caramona, M. M. Methods Find. Exp. Clin. Pharmacol. 2009, 31, 101-106).
(§2) To perform a statistical evaluation of the results, one-way ANOVA variance analysis and Dunnett's post hoc test (multiple comparison test) were used. The value at the significance level p<0.05 was considered statistically significant.

[2] = test system: male Swiss albino mice (CD-1); test: Psychomotor seizure test 6 Hz (32 mA); format: in vivo; settings: 0.5 h, mice; for ED50 / responders at 100 mg/kg: Mus musculus, ip; for responders at 100 mg/kg: read-out: 6 Hz (32 mA): number of mice protected/number of mice tested (converted)
Protocol: as §1
In the 6 Hz test, seizures were induced by an electric stimulus of 32 mA and/or 44 mA and a frequency of 6 pulses per second. An electrical pulse was generated using an electric shock generator (ECT Unit 57800; Ugo Basile, Gemonio, Italy) and delivered to the animal using ocular electrodes. Before starting the test, the eye surface was gently moistened with a solution of local anesthetic (1% lidocaine solution). The study was conducted 30 minutes after intraperitoneal administration of the compounds at various doses. An electrical pulse was delivered continuously for a period of 3 seconds, followed by observation of the animal for a period of 10 seconds. During this time, immobility or stun associated with rearing, forelimb clonus, twitching of the vibrissae and Straub's tail were observed. These symptoms persist throughout the observation period, indicating the occurrence of psychomotor seizures in mice. Mice resuming normal behavior within 10 s after stimulation were considered as protected (Barton, M. E.; Klein, B. D.; Wolf, H. H.; White, H. S. Epilepsy Res. 2001, 47, 217-227; Wojda, E.; Wlaź, A.; Patsalos, P. N.; Łuszczki, J. J. Epilepsy Res. 2009, 86, 163-174).
as §2

[3] = test system: male Swiss albino mice (CD-1); test: Psychomotor seizure test 6 Hz (44 mA); format: in vivo; settings: 0.5 h, mice; for 6 Hz (44 mA): number of mice protected/number of mice tested: screening, 100 mg/kg i.p.
Protocol: (§3) All procedures were carried out in accordance with applicable Polish and international guidelines on the ethics of animal testing, after obtaining appropriate institutional approval. The substances were administered intraperitoneally (i.p.), in 1% aqueous solution of Tween, as single injections with a volume of 10 ml/kg, 30 minutes before the given test. Screening was performed on groups consisted of 4 mice. […] All tests were carried out based on the procedures described in the specialist literature.
In the 6 Hz test, seizures were induced by an electric stimulus of 32 mA and/or 44 mA and a frequency of 6 pulses per second. […] Before starting the test, the eye surface was gently moistened with a solution of local anesthetic (1% lidocaine solution). The study was conducted 30 minutes after intraperitoneal administration of the compounds at various doses. An electrical pulse was delivered continuously for a period of 3 seconds, followed by observation of the animal for a period of 10 seconds. During this time, immobility or stun associated with rearing, forelimb clonus, twitching of the vibrissae and Straub's tail were observed. These symptoms persist throughout the observation period, indicating the occurrence of psychomotor seizures in mice.
as §2

[4] = test system: male Swiss albino mice (CD-1); test: Subcutaneous pentylenetetrazole seizure test (scPTZ); format: in vivo; settings: 0.5 h, mice; for ED50 / responders at 100 mg/kg: Mus musculus, ip; for scPTZ: number of mice protected/number of mice tested / responders at 100 mg/kg: screening, 100 mg/kg i.p.; for responders at 100 mg/kg: read-out: scPTZ: number of mice protected/number of mice tested (converted)
Protocol: as §1
In the scPTZ test, seizures were induced by subcutaneous administration of pentylenetetrazole (PTZ) at a dose of 100 mg/kg. This caused clonic seizures with accompanying loss of the righting reflex. Test compounds were administered 30 minutes before the experiment. After PTZ administration, the animals were placed individually in transparent containers and observed for a period of 30 minutes for the occurrence of clonic seizures. During this time, the latency of the first onset of clonic seizures, defined as clonus of the whole body lasting at least 3 seconds with loss of the righting reflex and the number of seizure episodes during the test were noted and compared with control group. The absence of clonic convulsions within the observed time period was interpreted as the compound's ability to protect against PTZ-induced seizures (Ferreri, G.; Chimirri, A.; Russo, E.; Gitto, R.; Gareri, P.; De Sarro, A.; De Sarro, G. Pharmacol. Biochem. Behav. 2004, 77, 85-94; Łączkowski, K.; Sałat, K.; Misiura, K.; Podkowa, A.; Malikowska, N. J. Enzyme Inhib. Med. Chem. 2016, 31, 1576-82).
as §2

[5] = Rotarod test (motor coordination); format: in vivo; settings: male, Swiss albino (CD-1), mouse, in vivo, ip, mice
Protocol: as §3
Mice were trained the day before the actual experiment. They were placed individually on a 2 cm diameter rod rotating at 10 revolutions per minute (rpm). During each training session, the animals remained on the rod for 3 minutes. The experiment was carried out 30 minutes after administration of the compounds. Motor coordination was tested at the speed of the rotating bar: 10 rpm during 60 seconds. Motor impairments were defined as the inability to remain on the rotating rod for 1 min.
as §2

| SMILES | ED50 [1] | responders at 100 mg/kg [1] | ED50 [2] | 6 Hz (32 mA): number of mice protected/number of mice tested ([2]; screening, 100 mg/kg i.p.) | 6 Hz (44 mA): number of mice protected/number of mice tested [3] | ED50 [4] | scPTZ: number of mice protected/number of mice tested [4] | TD50 at 0.5 h [5] | melting point | responders at 100 mg/kg ([2]; screening, 100 mg/kg i.p.) | MES: number of mice protected/number of mice tested [1] | ED50 ([3]; Mus musculus, ip) | responders at 100 mg/kg [4] | scPTZ: number of mice protected/number of mice tested ([4]; 100 mg/kg) |
| --- | --- | --- | --- | --- | --- | --- | --- | --- | --- | --- | --- | --- | --- | --- |
| O=C(C(c1ccccc1)N1C(=O)CCC1=O)N1CCN(c2ccccc2)CC1 (racemic) [Compound 2, 1-(2-Oxo-1-phenyl-2-(4-phenylpiperazin-1-yl)ethyl)pyrrolidine-2,5-dione] | 91.1 mg/kg | 100% | 83.5 mg/kg | ¾ | 2/4 | 100 mg/kg | ¾ | > 300 mg/kg | 156.7 to 157.4 °C | – | – | – | – | – |
| O=C(C(c1ccccc1)N1C(=O)CCC1=O)N1CCN(c2cccc(Cl)c2)CC1 (racemic) [Compound 3, 1-(2-(4-(3-Chlorophenyl)piperazin-1-yl)-2-oxo-1-phenylethyl)pyrrolidine-2,5-dione] | 36.9 mg/kg | 100% | 39.5 mg/kg | – | ¾ | 52.6 mg/kg | ¾ | 144 mg/kg | 128.1 to 129 °C | 100% | – | – | – | – |
| Cc1cccc(N2CCN(C(=O)C(c3ccccc3)N3C(=O)CCC3=O)CC2)c1 (racemic) [Compound 5, 1-(2-Oxo-1-phenyl-2-(4-(m-tolyl)piperazin-1-yl)ethyl)pyrrolidine-2,5-dione] | 37.2 mg/kg | – | 35.5 mg/kg | – | 2/4 | 57.6 mg/kg | ¾ | 171 mg/kg | 188.7 to 192.1 °C | 100% | ¾ | – | – | – |
| O=C(C(c1ccccc1)N1C(=O)CCC1=O)N1CCN(c2cccc(C(F)F)c2)CC1 (racemic) [Compound 9, 1-(2-Oxo-1-phenyl-2-(4-(3-(difluoromethyl)phenyl)piperazin-1-yl)ethyl)pyrrolidine-2,5-dione] | 97.7 mg/kg | – | 63 mg/kg | – | – | 94.3 mg/kg | – | 274 mg/kg | 156.4 to 157.6 °C | – | – | 196 mg/kg | – | – |
| O=C(C(c1ccccc1)N1C(=O)CCC1=O)N1CCN(c2cccc(OC(F)(F)F)c2)CC1 (racemic) [Compound 10, 1-(2-Oxo-1-phenyl-2-(4-(3-(trifluoromethoxy)phenyl)piperazin-1-yl)ethyl)pyrrolidine-2,5-dione] | 41.7 mg/kg | 100% | 38.3 mg/kg | – | ¾ | < 60 mg/kg | – | 74 mg/kg | 100.3 to 101.6 °C | 100% | – | – | 50% | – |
| O=C(C(c1ccccc1)N1C(=O)CCC1=O)N1CCN(c2cccc(-c3ccccc3)c2)CC1 (racemic) [Compound 13, 1-(2-(4-([1,1′-Biphenyl]-3-yl)piperazin-1-yl)-2-oxo-1-phenylethyl)pyrrolidine-2,5-dione] | 43.9 mg/kg | 100% | 26.2 mg/kg | – | 4/4 | < 100 mg/kg | – | 73.6 mg/kg | 114.1 to 115.4 °C | 100% | – | – | 50% | – |
| O=C(C(c1ccccc1)N1C(=O)CCC1=O)N1CCC(c2cccc(C(F)(F)F)c2)CC1 (racemic) [Compound 19, 1-(2-Oxo-1-phenyl-2-(4-(3-(trifluoromethyl)phenyl)piperidin-1-yl)ethyl)pyrrolidine-2,5-dione] | 81.8 mg/kg | 100% | 41 mg/kg | – | 2/4 | < 100 mg/kg | – | 254 mg/kg | 100.1 to 101.5 °C | 100% | ¾ | – | 100% | ¾ |
| O=C([C@H](c1ccccc1)N1C(=O)CCC1=O)N1CCN(c2cccc(C(F)(F)F)c2)CC1 [(S)-6, (S)-1-(2-Oxo-1-phenyl-2-(4-(3-(trifluoromethyl)phenyl)piperazin-1-yl)ethyl) pyrrolidine-2,5-dione] | 68.5 mg/kg | – | > 130 mg/kg | – | ¼ | 75.4 mg/kg | ¾ | > 300 mg/kg | – | 50% | ¾ | – | – | – |

Source: patent US12139458B2, “(2,5-dioxopyrrolidin-1-yl)(phenyl)-acetamide derivatives and their use in the treatment of neurological diseases” (UNIWERSYTET JAGIELLONSKI, priority 2019, dated 2024)
